Source: ChEMBL document CHEMBL5352410, “Discovery of novel selenium-containing azole derivatives as antifungal agents by exploiting the hydrophobic cleft of CYP51” (Eur J Med Chem, 2022)
≈ marks a conversion by molar mass, not a printed value.

Tests used:
Format in all cases: functional
Candida albicans [1] = test: Antifungal activity against FCZ-resistant Candida albicans 17# by CLSI based broth microdilution method
Candida albicans [2] = test: Antifungal activity against FCZ-resistant Candida albicans CaR by CLSI based broth microdilution method
Candida albicans [3] = test: Antifungal activity against FCZ-resistant Candida albicans 901 by CLSI based broth microdilution method
Candida albicans [4] = test: Antifungal activity against FCZ-resistant Candida albicans 632 by CLSI based broth microdilution method
Candida albicans [5] = test: Antifungal activity against FCZ-resistant Candida albicans 904 by CLSI based broth microdilution method
[Candida] zeylanoides = Antifungal activity against Candida zeylanoides by CLSI based broth microdilution method; details: Dujonia zeylanoides
Candida albicans [6] = test: Antifungal activity against Candida albicans sc5314 by CLSI based broth microdilution method
Cryptococcus neoformans = test: Antifungal activity against Cryptococcus neoformans by CLSI based broth microdilution method
Aspergillus fumigatus = test: Antifungal activity against Aspergillus fumigatus by CLSI based broth microdilution method
Nakaseomyces glabratus = test: Antifungal activity against Candida glabrata by CLSI based broth microdilution method
Candida albicans [7] = test: Antifungal activity against Candida albicans by CLSI based broth microdilution method
Candida parapsilosis = test: Antifungal activity against Candida parapsilosis by CLSI based broth microdilution method; details: Lodderomyces parapsilosis
Pichia kudriavzevii = test: Antifungal activity against Pichia kudriavzevii by CLSI based broth microdilution method

SMILES | MIC (Candida albicans [1]) [µg/mL] | MIC (Candida albicans [2]) [µg/mL] | MIC (Candida albicans [3]) [µg/mL] | MIC (Candida albicans [4]) [µg/mL] | MIC (Candida albicans [5]) [µg/mL] | MIC ([Candida] zeylanoides) [µg/mL] | MIC (Candida albicans [6]) [µg/mL] | MIC (Cryptococcus neoformans) [µg/mL] | MIC (Aspergillus fumigatus) [µg/mL] | MIC (Nakaseomyces glabratus) [µg/mL] | MIC (Candida albicans [7]) [µg/mL] | MIC (Candida parapsilosis) [µg/mL] | MIC (Pichia kudriavzevii) [µg/mL]
Fc1ccc(C(Cn2cnnn2)[Se][Se]C(Cn2cnnn2)c2ccc(F)cc2F)c(F)c1 (stereo not drawn) | 64 (≈ 111 µM) | > 64 | > 64 | > 64 | > 64 |  |  |  |  |  |  |  | 
Fc1ccc(C(Cn2cncn2)[Se][Se]C(Cn2cncn2)c2ccc(F)cc2)cc1 (stereo not drawn) | 16 (≈ 29.7 µM) | 4 (≈ 7.43 µM) | 16 (≈ 29.7 µM) | 64 (≈ 119 µM) | 16 (≈ 29.7 µM) |  |  |  |  |  |  |  | 
CCC(C)n1ncn(-c2ccc(N3CCN(c4ccc(OCC5COC(Cn6cncn6)(c6ccc(Cl)cc6Cl)O5)cc4)CC3)cc2)c1=O (stereo not drawn) [ITRACONAZOLE] | > 64 | 8 (≈ 11.3 µM) | > 64 | > 64 | > 64 |  |  |  |  |  |  |  | 
Clc1ccc(C(Cn2ccnn2)[Se][Se]C(Cn2ccnn2)c2ccc(Cl)cc2Cl)c(Cl)c1 (stereo not drawn) | 64 (≈ 100 µM) | 4 (≈ 6.25 µM) | > 64 | > 64 | > 64 |  |  |  |  |  |  |  | 
Clc1ccc(C(Cn2cnnn2)[Se][Se]C(Cn2cnnn2)c2ccc(Cl)cc2)cc1 (stereo not drawn) | > 64 | > 64 | > 64 | > 64 | > 64 |  |  |  |  |  |  |  | 
Fc1ccc(C(Cn2ccnn2)[Se]C(Cn2ccnn2)c2ccc(F)cc2F)c(F)c1 (stereo not drawn) | 4 (≈ 8.08 µM) | 64 (≈ 129 µM) | > 64 | > 64 | > 64 | 1 (≈ 2.02 µM) | > 64 | 32 (≈ 64.6 µM) | > 64 | 64 (≈ 129 µM) | > 64 | > 64 | > 64
Clc1ccc(C(Cn2ccnn2)[Se]C(Cn2ccnn2)c2ccc(Cl)cc2)cc1 (stereo not drawn) | > 64 | > 64 | > 64 | > 64 | > 64 | 64 (≈ 130 µM) | > 64 | > 64 | > 64 | 8 (≈ 16.3 µM) | > 64 | > 64 | 32 (≈ 65 µM)
Clc1ccc(C(Cn2cnnn2)[Se]C(Cn2cnnn2)c2ccc(Cl)cc2Cl)c(Cl)c1 (stereo not drawn) | > 64 | > 64 | > 64 | > 64 | > 64 | > 64 | > 64 | > 64 | > 64 | > 64 | > 64 | > 64 | > 64
Clc1ccc(C(Cn2cncn2)[Se]C(Cn2cncn2)c2ccc(Cl)cc2)cc1 (stereo not drawn) | 8 (≈ 16.3 µM) | 32 (≈ 65 µM) | 16 (≈ 32.5 µM) | > 64 | 64 (≈ 130 µM) | 16 (≈ 32.5 µM) | 32 (≈ 65 µM) | 4 (≈ 8.13 µM) | > 64 | > 64 | > 64 | > 64 | > 64
Clc1ccc(C(Cn2ccnn2)[Se]C(Cn2ccnn2)c2ccc(Cl)cc2Cl)c(Cl)c1 (stereo not drawn) | 4 (≈ 7.13 µM) | 128 (≈ 228 µM) | > 64 | > 64 | > 64 | 32 (≈ 57 µM) | > 64 | 64 (≈ 114 µM) | > 64 | 64 (≈ 114 µM) | > 64 | > 64 | > 64
Fc1ccc(C(Cn2cnnn2)[Se]C(Cn2cnnn2)c2ccc(F)cc2)cc1 (stereo not drawn) | > 64 | > 64 | > 64 | > 64 | > 64 | 32 (≈ 69.4 µM) | > 64 | > 64 | > 64 | > 64 | > 64 | > 64 | > 64
Fc1ccc(C(Cn2ccnn2)[Se]C(Cn2ccnn2)c2ccc(F)cc2)cc1 (stereo not drawn) | > 64 | > 64 | > 64 | > 64 | > 64 | 64 (≈ 139 µM) | > 64 | > 64 | > 64 | 8 (≈ 17.4 µM) | > 64 | > 64 | 64 (≈ 139 µM)
Clc1ccc(C(Cn2cncn2)[Se][Se]C(Cn2cncn2)c2ccc(Cl)cc2)cc1 (stereo not drawn) | 64 (≈ 112 µM) | 4 (≈ 7 µM) | 16 (≈ 28 µM) | > 64 | 16 (≈ 28 µM) |  |  |  |  |  |  |  | 
Clc1ccc(C(Cn2ccnn2)[Se][Se]C(Cn2ccnn2)c2ccc(Cl)cc2)cc1 (stereo not drawn) | > 64 | > 64 | > 64 | > 64 | > 64 |  |  |  |  |  |  |  | 
Fc1ccc(C(Cn2cncn2)[Se]C(Cn2cncn2)c2ccc(F)cc2)cc1 (stereo not drawn) | 8 (≈ 17.4 µM) | 64 (≈ 139 µM) | > 64 | > 64 | 64 (≈ 139 µM) | 1 (≈ 2.18 µM) | 32 (≈ 69.7 µM) | > 64 | > 64 | 64 (≈ 139 µM) | > 64 | > 64 | > 64
Clc1ccc(C(Cn2cncn2)[Se]C(Cn2cncn2)c2ccc(Cl)cc2Cl)c(Cl)c1 (stereo not drawn) | 8 (≈ 14.3 µM) | 32 (≈ 57 µM) | > 64 | 64 (≈ 114 µM) | > 64 | 0.5 (≈ 0.891 µM) | 32 (≈ 57 µM) | 4 (≈ 7.13 µM) | > 64 | 32 (≈ 57 µM) | 64 (≈ 114 µM) | 64 (≈ 114 µM) | 64 (≈ 114 µM)
Fc1ccc(C(Cn2ccnn2)[Se][Se]C(Cn2ccnn2)c2ccc(F)cc2)cc1 (stereo not drawn) | > 64 | 32 (≈ 59.4 µM) | > 64 | > 64 | > 64 |  |  |  |  |  |  |  | 
Clc1ccc(C(Cn2cnnn2)[Se]C(Cn2cnnn2)c2ccc(Cl)cc2)cc1 (stereo not drawn) | > 64 | > 64 | > 64 | > 64 | > 64 | > 64 | > 64 | > 64 | > 64 | > 64 | > 64 | > 64 | > 64
Fc1ccc(C(Cn2cnnn2)[Se][Se]C(Cn2cnnn2)c2ccc(F)cc2)cc1 (stereo not drawn) | 32 (≈ 59.2 µM) | 16 (≈ 29.6 µM) | > 64 | > 64 | > 64 |  |  |  |  |  |  |  | 
Fc1ccc(C(Cn2cncn2)[Se][Se]C(Cn2cncn2)c2ccc(F)cc2F)c(F)c1 (stereo not drawn) | 8 (≈ 13.9 µM) | 16 (≈ 27.9 µM) | 16 (≈ 27.9 µM) | > 64 | 64 (≈ 111 µM) |  |  |  |  |  |  |  | 
Clc1ccc(C(Cn2cncn2)[Se][Se]C(Cn2cncn2)c2ccc(Cl)cc2Cl)c(Cl)c1 (stereo not drawn) | 16 (≈ 25 µM) | 8 (≈ 12.5 µM) | > 64 | > 64 | > 64 |  |  |  |  |  |  |  | 
Clc1ccc(C(Cn2cnnn2)[Se][Se]C(Cn2cnnn2)c2ccc(Cl)cc2Cl)c(Cl)c1 (stereo not drawn) | 64 (≈ 99.7 µM) | 64 (≈ 99.7 µM) | > 64 | > 64 | > 64 |  |  |  |  |  |  |  | 
Fc1ccc(C(Cn2cnnn2)[Se]C(Cn2cnnn2)c2ccc(F)cc2F)c(F)c1 (stereo not drawn) | > 64 | > 64 | > 64 | > 64 | > 64 | > 64 | > 64 | > 64 | > 64 | > 64 | > 64 | > 64 | > 64
Fc1ccc(C(Cn2ccnn2)[Se][Se]C(Cn2ccnn2)c2ccc(F)cc2F)c(F)c1 (stereo not drawn) | 16 (≈ 27.9 µM) | 4 (≈ 6.96 µM) | > 64 | > 64 | > 64 |  |  |  |  |  |  |  | 
